This is an account of results in US5283248A, “Amino substituted pyrimido[1,6-2]benzimidazoles” (priority 1989, dated 1994).

The target of one data set is T1, DNA-gyrase (Escherichia coli, UniProt P0AES4+P0AES6).
T1 construct: made in house; host or cells: E. coli N4186 and E. coli MK47
Kind of data set: DNA-gyrase inhibition, supercoiling method (relaxed pUC18 or pUC19 plasmid DNA as substrate). Conditions: E. coli DNA-gyrase. Format: biochemical. From the text: The inhibitory action on the DNA-gyrase activity in bacteria can be determined, for example, by means of the supercoiling method described by R. Otter and N. R. Cozzarelli in Methods in Enzymology, Vol. 100, pp. 171-180 (1983). The DNA-gyrase used was isolated from E. coli N4186 and from the sub-unit B of E. coli MK47 (Mitsuchi et al., JBL 159, 9199-9201 (1984)). Relaxed pUC18 or pUC19 plasmid DNA was used as the substrate. The results determined in this test are compiled in the following Table, with the results being expressed as the MNC (maximum non-effective concentration) in μg/ml.

A short description of another data set: Toxicity, LD50. Conditions: in vivo.

T1 sequence (P0AES4 whole entry, one chain of several): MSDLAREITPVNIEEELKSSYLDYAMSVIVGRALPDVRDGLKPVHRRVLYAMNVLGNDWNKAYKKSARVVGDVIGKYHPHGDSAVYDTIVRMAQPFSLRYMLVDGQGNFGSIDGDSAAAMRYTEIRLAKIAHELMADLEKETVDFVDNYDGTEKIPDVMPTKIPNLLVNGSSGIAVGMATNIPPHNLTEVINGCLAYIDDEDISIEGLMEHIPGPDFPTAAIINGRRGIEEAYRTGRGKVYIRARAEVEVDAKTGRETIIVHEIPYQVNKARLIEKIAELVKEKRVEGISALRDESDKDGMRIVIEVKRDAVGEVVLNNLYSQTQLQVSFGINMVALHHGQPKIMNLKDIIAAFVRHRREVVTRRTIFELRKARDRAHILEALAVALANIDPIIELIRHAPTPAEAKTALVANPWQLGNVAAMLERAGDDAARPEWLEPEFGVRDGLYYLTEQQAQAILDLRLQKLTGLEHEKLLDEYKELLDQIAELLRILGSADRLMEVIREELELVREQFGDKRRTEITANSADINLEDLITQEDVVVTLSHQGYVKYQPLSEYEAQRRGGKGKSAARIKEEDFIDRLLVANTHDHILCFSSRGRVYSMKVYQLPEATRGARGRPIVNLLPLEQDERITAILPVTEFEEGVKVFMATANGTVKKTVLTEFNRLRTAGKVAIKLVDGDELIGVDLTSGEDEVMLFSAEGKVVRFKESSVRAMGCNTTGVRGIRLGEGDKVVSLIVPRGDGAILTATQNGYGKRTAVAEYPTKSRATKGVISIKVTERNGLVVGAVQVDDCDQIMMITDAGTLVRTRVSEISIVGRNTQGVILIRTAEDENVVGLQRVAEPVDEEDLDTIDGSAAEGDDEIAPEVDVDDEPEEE

Regarding `CCn1c2cc(N3CCN(C)CC3)c(F)cc2n2c(=O)[nH]c(=O)cc12` [Example 1, 5-ethyl-8-fluoro-7-(4-methyl-1-piperazinyl)pyrimido[1,6-a]benzimidazole-1,3(2H,5H)-dione], the “Activity MNC (maximum non-effective concentration)” value at DNA-gyrase was 2 µg/mL.

Turning to `O=C(O)C(F)(F)F.O=c1cc2n(C3CC3)c3cc(N4CCNCC4)c(F)cc3n2c(=O)[nH]1` [Example 2, 5-cyclopropyl-8-fluoro-7-(1-piperazinyl)-pyrimido[1,6-a]benzimidazole-1,3(2H,5H)-dione trifluoroacetate], at DNA-gyrase, the “Activity MNC (maximum non-effective concentration)” value was determined as 0.45 µg/mL. In addition, the LD50 (commonly the dose at which mortality reaches 50%) in “Toxicity, LD50” (iv) was 30 mg/kg; in the data set “Toxicity, LD50” (po), > 2000 mg/kg. On to `CCn1c2cc(N3CCN(C)CC3)c(F)cc2n2c(=O)[nH]c(=S)cc12` [Example 3], for which the “Activity MNC (maximum non-effective concentration)” value at DNA-gyrase stood at 2 µg/mL. `Cl.O=c1cc2n(C3CC3)c3cc(N4CCNCC4)c(F)cc3n2c(=O)n1O` [Example 4, 5-cyclopropyl-8-fluoro-2-hydroxy-7-(1-piperazinyl)-pyrimido[1,6-a]benzimidazole-1,3(2H,5H)-dione hydrochloride]: the “Activity MNC (maximum non-effective concentration)” value at DNA-gyrase amounted to 2 µg/mL. Moreover, the LD50 in the data set “Toxicity, LD50” (iv) is 30 mg/kg; in the data set “Toxicity, LD50” (po), > 4000 mg/kg.

As for `CCn1c2cc(N3CCNCC3)c(F)cc2n2c(=O)[nH]c(=O)cc12` [Example 8, 5-ethyl-8-fluoro-7-(1-piperazinyl)pyrimido[1,6-a]benzimidazole-1,3(2H,5H)-dione], at DNA-gyrase, the “Activity MNC (maximum non-effective concentration)” value came out at 1 µg/mL.
